Data from the Deep4Chem optical property database.

Experiment: solvent given as SMILES

## CCC1=C(C)C(=O)n2c1cc1c(C)c(CCC(=O)OC)c(C)n1c2=O
In CC#N
  absorption maximum: 420 nm
In CC(C)=O
  absorption maximum: 420 nm
In CO
  absorption maximum: 424 nm
In CS(C)=O
  absorption maximum: 425 nm
In ClC(Cl)Cl
  absorption maximum: 427 nm
In c1ccccc1
  absorption maximum: 420 nm

## CO[Si](c1c2ccccc2cc2ccccc12)(c1c2ccccc2cc2ccccc12)c1c2ccccc2cc2ccccc12
In ClC(Cl)Cl
  absorption maximum: 401 nm

## Cc1cc(=O)cc(-c2ccc(-c3nc4ccccn4c3NC3CCCCC3)cc2)o1
In ClCCl
  absorption maximum: 357 nm

## CC(C)(C)c1ccc(C#Cc2cc3c(C#Cc4ccc(C(C)(C)C)cc4)c(C#Cc4ccc(C(C)(C)C)cc4)c4cc(C#Cc5ccc(C(C)(C)C)cc5)cc5c(C#Cc6ccc(C(C)(C)C)cc6)c(C#Cc6ccc(C(C)(C)C)cc6)c(c2)c3c45)cc1
In ClCCl
  absorption maximum: 414 nm

## CN(C)c1ccc(/C=C/c2cnc3ccccc3n2)cc1
In C1CCOC1
  absorption maximum: 424 nm
In CC#N
  absorption maximum: 424 nm
In CCCCCCC
  absorption maximum: 418 nm
In CS(C)=O
  absorption maximum: 435 nm
In ClCCl
  absorption maximum: 427 nm

## CCOC(=O)c1c(-c2cc3ccccc3oc2=O)nn(-c2ccc(OC)cc2)c1C(=O)OCC
In ClCCl
  absorption maximum: 323 nm

## COc1cccc(OC)c1-c1c2ccc(=[N+]3CCN(C(=O)OC(C)(C)C)CC3)cc-2oc2cc(N3CCN(C(=O)OC(C)(C)C)CC3)ccc12
In ClCCl
  absorption maximum: 555 nm

## Cc1cc(C)c(C2=C3C=CC=[N+]3[B-]3(c4ccc5ccc6cccc7ccc4c5c67)Oc4cc(O)cc5c6ccc(C)cc6c6cc2n3c6c45)c(C)c1 (stereo not drawn)
In ClC(Cl)Cl
  absorption maximum: 647 nm

## CCOC(=O)c1ccc(C2=CC3=c4cc(-c5ccc(C(=O)OCC)cc5)c5nc(C(F)(F)C(F)(F)C(F)(F)F)nc6c(-c7ccc(C(=O)OCC)cc7)cc(c4c65)C4=CC(c5ccc(C(=O)OCC)cc5)=C5N=C(C(F)(F)C(F)(F)C(F)(F)F)N=C2C5C43)cc1 (stereo not drawn)
In C1CCOC1
  absorption maximum: 497 nm

## COc1ccc(/C=C(\C)c2nc3ccccc3o2)cc1
In C1CCCCC1
  absorption maximum: 320 nm
In CO
  absorption maximum: 325 nm

## COc1cc2cc(C#Cc3ccc(/C=C(\C#N)C(=O)O)cc3)c(=O)oc2cc1OC
In CC#N
  absorption maximum: 398 nm

## COC(=O)c1c(C(=O)OC)c2ccc(-c3ccccc3)nn2c1C
In C1CCCCC1
  absorption maximum: 397.6 nm

## CCCC1=Cc2nc1ccc1[nH]c(cc1CCC)c1nc(c(OC(=O)CCCNC(=O)OC(C)(C)C)cc3[nH]c2cc3CCC)C(CCC)=C1
In Cc1ccccc1
  absorption maximum: 645 nm

## Cc1cc2nc3c(=O)n(C)c(=O)n(C)c3nc2cc1C
In CC#N
  absorption maximum: 375 nm

## COc1cc(OC)cc(C2=C3C(C)=C(I)C(C)=[N+]3[B-](F)(F)n3c(/C=C/c4c[nH]c5ccccc45)c(I)c(C)c32)c1
In C1CCOC1
  absorption maximum: 627 nm
In CS(C)=O
  absorption maximum: 636 nm
In ClCCl
  absorption maximum: 618 nm

## CC(=O)O[B-]1(OC(C)=O)OC(/C=C/c2ccc(C)cc2)=CC(/C=C/c2ccc(C)cc2)=[O+]1
In C1CCOC1
  absorption maximum: 434 nm
In CC#N
  absorption maximum: 434 nm
In CC(C)=O
  absorption maximum: 434 nm
In CS(C)=O
  absorption maximum: 442 nm
In Cc1ccccc1
  absorption maximum: 436 nm
In ClC(Cl)Cl
  absorption maximum: 440 nm
In ClCCl
  absorption maximum: 440 nm

## C[Si]1(C)O[Si](C)(C)c2cc3c(-c4ccccc4)c4cc(Cl)ccc4nc3cc21
In ClCCl
  absorption maximum: 376 nm

## COc1ccc(-n2c(-c3ccc(-c4cncc5ccccc45)cc3)nc3c4ccccc4c4ccccc4c32)cc1
In C1CCOC1
  absorption maximum: 365 nm

## O=P1(c2ccccc2)c2ccc(N3c4ccccc4Sc4ccccc43)cc2-c2cc(N3c4ccccc4Sc4ccccc43)ccc21
In Cc1ccccc1
  absorption maximum: 422 nm

## C[n+]1ccc(-c2ccc([O-])cc2)cc1
In CC#N
  absorption maximum: 472 nm
In CC(C)=O
  absorption maximum: 479 nm
In CC(C)O
  absorption maximum: 457 nm
In CCC(C)O
  absorption maximum: 460 nm
In CCCO
  absorption maximum: 441 nm
In CO
  absorption maximum: 418 nm
In CS(C)=O
  absorption maximum: 473 nm
In O
  absorption maximum: 394 nm

## Cc1ccc(-c2ccc(/C=C/c3cccs3)cn2)nc1
In CC#N
  absorption maximum: 348 nm

## CC(C)=NO
In CCO
  absorption maximum: 193 nm

## COc1cc2cc(OC)c(C#Cc3ccc([N+](=O)[O-])cc3)cc2cc1C#Cc1ccc([N+](=O)[O-])cc1
In C1CCOC1
  absorption maximum: 361 nm
In ClC(Cl)Cl
  absorption maximum: 362 nm
In ClCCl
  absorption maximum: 360 nm

## C[Si](C)(C)C#CC#Cc1ccc2c3cccc4cccc(c5cccc1c52)c43
In C1CCCCC1
  absorption maximum: 470 nm

## N#Cc1c(N2CCCCC2)cc(-c2ccc(-c3ccccc3)cc2)c2c1CCc1ccccc1-2
In C1CCOC1
  absorption maximum: 332 nm

## CCC1=C(C)C2=Cc3c(I)c(I)c(I)n3[B-](F)(F)[N+]2=C1C
In C1CCCCC1
  absorption maximum: 543.5 nm
In CC(C)=O
  absorption maximum: 528 nm
In CCO
  absorption maximum: 536 nm
In CCOC(C)=O
  absorption maximum: 532 nm
In CO
  absorption maximum: 531.5 nm
In OCC(F)(F)F
  absorption maximum: 523 nm

## CCN(CC)c1ccc2cc(-c3ccc(-c4ccc5ccc6c(-c7ccc(-c8cc9ccc(N(CC)CC)cc9oc8=O)cc7)ccc7ccc4c5c76)cc3)c(=O)oc2c1
In ClC(Cl)Cl
  absorption maximum: 412 nm

## COc1ccc2ccc(O)cc2c1
In O
  absorption maximum: 325 nm

## CC[N+]1(CC)CN2C(C)=CC(C)=C(C(=O)[O-])C2=N1
In CN(C)C=O
  absorption maximum: 361 nm
In O
  absorption maximum: 338 nm

## CC(C)(C)Nc1cc2oc3cc(NC(C)(C)C)c(F)cc3c(=O)c2cc1F
In CCO
  absorption maximum: 368 nm

## C(=C/c1ccc(N(c2ccccc2)c2ccccc2)cc1)/c1ccc(N(c2ccccc2)c2ccccc2)cc1
In ClCCl
  absorption maximum: 370 nm

## CC[N+]1(CC)CN2C(=N1)C(C(=O)O)=Cc1cc(OC)ccc12
In O
  absorption maximum: 394 nm

## CCCCCCC1(CCCCCC)c2cc(-c3nc(-c4ccc5c(c4)C(CCCCCC)(CCCCCC)c4cc(N6c7ccccc7Oc7ccccc76)ccc4-5)nc(-c4ccc5c(c4)C(CCCCCC)(CCCCCC)c4cc(N6c7ccccc7Oc7ccccc76)ccc4-5)n3)ccc2-c2ccc(N3c4ccccc4Oc4ccccc43)cc21
In C1CCOC1
  absorption maximum: 391 nm

## COc1ccc(-c2cc(B(c3c(C)cc(C)cc3C)c3c(C)cc(C)cc3C)c(-c3sc(-c4ccc(OC)cc4)cc3P(=O)(c3ccccc3)c3ccccc3)s2)cc1
In CO
  absorption maximum: 402 nm

## CC(C)[Si](C#Cc1c2cc3ccccc3cc2c(C#C[Si](C(C)C)(C(C)C)C(C)C)c2nc3c(nc12)C1c2ccccc2C3c2ccccc21)(C(C)C)C(C)C
In CCCCCC
  absorption maximum: 542 nm

## Cc1c(-c2ccc(N3c4ccccc4C(C)(C)c4ccccc43)cc2)ncnc1-c1ccc(N2c3ccccc3C(C)(C)c3ccccc32)cc1
In Cc1ccccc1
  absorption maximum: 367.5 nm

## N#CC(C#N)=Cc1ccc2c(c1)c1ccccc1n2-c1cccc2ccccc12
In ClCCl
  absorption maximum: 404 nm

## c1cnc2c(c1)c1nc(-c3ccc(-c4nc5c6cccnc6c6ncccc6c5[nH]4)cc3)[nH]c1c1cccnc12
In CS(C)=O
  absorption maximum: 398 nm

## C(=C\c1cc[n+]2ccc(/C=C/c3ccsc3)cc2c1)/c1ccsc1
In CO
  absorption maximum: 432 nm

## Cc1ccc(S(=O)(=O)/N=c2\oc3cccc4c5c(-c6ccccc6)oc6cccc(c(c2-c2ccccc2)c34)c65)cc1
In ClC(Cl)Cl
  absorption maximum: 445 nm

## CCOC(=O)CCCCCn1c2ccc(C)cc2c(=O)c2cc3c(cc21)c(=O)c1cc(C)ccc1n3CCCCCC(=O)OCC
In CO
  absorption maximum: 540 nm

## O=C1c2ccccc2-c2c(-c3cc(Cl)ccc3O)[nH]c(=O)n21
In CC#N
  absorption maximum: 390 nm
In CO
  absorption maximum: 393 nm
In ClCCl
  absorption maximum: 395 nm

## Cc1cc2ccccc2c2c1c1ccccc1n2C
In ClCCl
  absorption maximum: 300 nm

## N#Cc1ccc(/C=C2\C=C(c3ccccc3)OC2=O)cc1
In C1COCCO1
  absorption maximum: 400 nm

## COc1ccc(-c2oc3cccc4c5c(-c6ccc(OC)cc6)/c(=N/S(=O)(=O)C(F)(F)F)oc6cccc(c2c34)c65)cc1
In ClC(Cl)Cl
  absorption maximum: 480 nm

## CC1(C)c2ccccc2N(c2ccc3c(c2)c2ccccc2n2c4ccccc4nc32)c2ccccc21
In Cc1ccccc1
  absorption maximum: 376 nm

## CCOC(=O)c1c(-c2cc3ccccc3oc2=O)nn(-c2cccc(C)c2)c1C(=O)OCC
In ClCCl
  absorption maximum: 321 nm

## CCCCC(CC)Cn1c2cc(C#N)ccc2c2ccc(C#Cc3ccc4ccc5c(C#Cc6ccc7c8ccc(C#N)cc8n(CC(CC)CCCC)c7c6)ccc6ccc3c4c65)cc21 (stereo not drawn)
In ClCCl
  absorption maximum: 385 nm

## CCCCCCN1C(=O)C(c2ccc(-n3c4ccccc4c4ccccc43)cc2)=C(c2ccc(-n3c4ccccc4c4ccccc43)cc2)C1=O
In ClC(Cl)Cl
  absorption maximum: 421 nm
In c1ccc2c(c1)c1ccccc1n2-c1ccc(-c2ccc(-n3c4ccccc4c4ccccc43)cc2)cc1
  absorption maximum: 426 nm

## Oc1ccccc1/C=N/c1cc2nc3ccccc3nc2cc1/N=C/c1ccccc1O
In CC#N
  absorption maximum: 403 nm

## Cn1c(=O)c(/N=N/c2ccc(/N=N/c3ccc(S(=O)(=O)O)cc3)cc2)c(O)c2ccccc21
In C1CCOC1
  absorption maximum: 454 nm
In CC(C)=O
  absorption maximum: 453 nm
In CCOC(C)=O
  absorption maximum: 452 nm
In CO
  absorption maximum: 452 nm
In CS(C)=O
  absorption maximum: 460 nm
In Cc1ccccc1
  absorption maximum: 458 nm
In ClCCl
  absorption maximum: 457 nm
In O
  absorption maximum: 447 nm

## CN(C)c1ccc(/C=C/c2cnc(/C=C/c3ccc(C#N)cc3)o2)cc1
In ClCCl
  absorption maximum: 432 nm

## C#Cc1ccc(-c2nc(-c3ccc(C#C)s3)nc(-c3ccc(C#C)s3)n2)s1
In ClCCl
  absorption maximum: 348 nm

## CCC1=C(C)C2=Cc3cc4c(cc3B(O)N2C1=O)OCO4
In CC#N
  absorption maximum: 383 nm
In CO
  absorption maximum: 381 nm
In CS(C)=O
  absorption maximum: 384 nm
In ClC(Cl)Cl
  absorption maximum: 389 nm

## Cc1ccc2cc3cc(C)ncc3cc2c1
In CCO
  absorption maximum: 383.73 nm

## COc1cc(-c2nc(-c3ccccc3)c(-c3ccccc3)[nH]2)c(OC)cc1/C=C/c1ccncc1
In C1CCOC1
  absorption maximum: 394 nm
In CC#N
  absorption maximum: 392 nm
In CN(C)C=O
  absorption maximum: 397 nm
In Cc1ccccc1
  absorption maximum: 398 nm

## CC(C)(C)c1ccc(-c2ccc(-c3ccc(N(c4ccccc4)c4ccccc4)cc3)c3nsnc23)cc1
In ClCCl
  absorption maximum: 436 nm

## COc1ccc(/C=C/c2cc(/C=C/c3ccc(OC)cc3)nc(/C=C/c3ccc(N(C)C)cc3)n2)cc1
In ClCCl
  absorption maximum: 370 nm

## Oc1ccccc1-c1nc2c3ccccc3c3ccccc3c2n1-c1ccccc1
In Cc1ccccc1
  absorption maximum: 335 nm

## CCN(CC)c1ccc2c(-c3ccc(S(=O)(=O)O)cc3S(=O)(=O)[O-])c3ccc(=[N+](CC)CC)cc-3oc2c1
In CC#N
  absorption maximum: 551 nm
In CCO
  absorption maximum: 556 nm
In CN(C)C=O
  absorption maximum: 554 nm
In O
  absorption maximum: 554 nm

## CCOC(=O)COc1ccc(/C=C/C2=[N+]3C(=Cc4c5ccccc5c(-c5[nH]c(C)cc5C)n4[B-]3(F)F)C(C)=C2)cc1
In ClCCl
  absorption maximum: 680 nm
